Legend:
Kuramochi cells = experiment: IncuCyte Kuramochi Assay (cell proliferation); format: cell-based; details: 72 h, Kuramochi cells labeled with mApple-H2B, cell count, read-out: IncuCyte - Kuramochi RB-WT: IC50
Experimental: IncuCyte® assay was used to measure the effect of disclosed compounds on cell proliferation. Fluorescent microscopy images of cells were taken immediately after compound treatment and 72 hours later. Image analysis software was used to obtain cell counts as a function of compound concentration. Kuramochi cells labeled with mApple-H2B were seeded on 384-well assay-ready plates. Plates were placed in an IncuCyte® (Sartorius) and scanned at 0 and 72 hours. IncuCyte® software was used to count the number of fluorescent nuclei in each well. The fold change in cell count from 0 to 72 hours in wells treated with increasing compounds concentrations (10 pts, ½ log dilution, 20 μM top concentration) was normalized to DMSO control wells. The normalized cell counts were fit with dose response curves and a […] was calculated.

CDK2/Cyclin E1 = target: T1, CDK2/Cyclin E1 (Homo sapiens, UniProt P24941); experiment: Caliper Assay (LabChip EZ Reader mobility shift assay), inhibition of CDK2/Cyclin E1 activity; format: biochemical; details: 2.5 nM CDK2/Cyclin E1(14-475), 100 μM ATP, 30 min preincubation; read-out: Caliper Assay (CDK2/CCNE1): IC50
T1 construct: purchased 14-475
Experimental: Inhibition of CDK2/Cyclin E1 activity in the presence of compounds of the present disclosure was evaluated using a Caliper LabChip® EZ Reader mobility shift assay. In the assay, activated CDK2/Cyclin E1 catalyzes the phosphorylation of a fluorescently tagged peptide 5-FAM-QSPKKG-CONH2 (PerkinElmer, FL Peptide 18) which induces a difference in capillary electrophoresis mobility. The peptide substrate and product were measured, and the conversion ratio was used to determine the inhibition (as % activity and IC50 values) of CDK2/Cyclin E1. Reactions contained 50 mM HEPES pH 7.5, 10 mM MgCl2, 1 mM EDTA, 2 mM DTT, 0.01% Brij35, 0.5 mg/mL BSA, 0.1% DMSO, 2.5 nM CDK2/Cyclin E1(14-475), 100 μM ATP, and 1.5 μM fluorescent peptide substrate.
Dose titrations of inhibitors in 100% DMSO were combined with 3.25 nM CDK2/Cyclin E1(14-475) and 130 μM of ATP in reaction buffer. The mixtures were incubated for 30 minutes before the addition of fluorescent peptide substrate to initiate the kinase reaction. The final conditions were 2.5 nM CDK2/Cyclin E1(14-475), 100 μM ATP, and 1.5 μM fluorescent peptide. The reactions were stopped after 100 minutes with the addition of EDTA (6 mM final EDTA concentration). The stopped reactions were analyzed on a Caliper LabChip© EZ Reader II. The conversion ratios were normalized to yield % activity, plotted against compound concentration, and fit to a four-parameter equation to determine the IC50 for each compound.

IC50 (CDK2/Cyclin E1)	Compound	IC50 (Kuramochi cells)
1 to 10 µM	CC1(C)C[C@@H]1C(=O)N1CC2(CN(C(=O)c3cncs3)CC2c2nnc(Cc3ccc4c(c3)CCCO4)o2)C1 (some centres unmarked) [I-71]	> 10 µM
1 to 10 µM	CC1(C)C[C@@H]1C(=O)N1CC2(CN(C(=O)c3cncs3)CC2c2nnc(C(F)(F)c3ccc(C#N)cc3)o2)C1 (some centres unmarked) [I-72]	> 10 µM
0.1 to 1 µM	CC1(C)C[C@@H]1C(=O)N1CC2(CN(C(=O)c3cncs3)CC2c2nnc(C(F)(F)c3cccc4ccccc34)o2)C1 (some centres unmarked) [I-73]	> 10 µM
1 to 10 µM	CC(c1nc(C2CN(C(=O)c3cncs3)CC23CN(C(=O)[C@H]2CC2(C)C)C3)no1)n1ncc2ccccc21 (some centres unmarked) [I-74]	> 10 µM
0.1 to 1 µM	CC(c1nc(C2CN(C(=O)c3cncs3)CC23CN(C(=O)[C@H]2CC2(C)C)C3)no1)n1cc2ccccc2n1 (some centres unmarked) [I-75]	> 10 µM
0.1 to 1 µM	CC1(C)C[C@@H]1C(=O)N1CC2(CN(C(=O)c3cncs3)CC2c2nnc(C(F)(F)c3ccc(F)c(F)c3)o2)C1 (some centres unmarked) [I-76]	> 10 µM
1 to 10 µM	CC(c1cc[nH]n1)c1nc(C2CN(C(=O)c3cncs3)CC23CN(C(=O)[C@H]2CC2(C)C)C3)no1 (stereo partly drawn) [I-77, (8-(5-(1-(1H-pyrazol-3-yl)ethyl)-1,2,4-oxadiazol-3-yl)-2-((S)-2,2-dimethylcyclopropane-1-carbonyl)-2,6-diazaspiro[3.4]octan-6-yl)(thiazol-5-yl)methanone]	> 10 µM
0.1 to 1 µM	CC(c1cccc(C2CCOCC2)n1)c1nnc(C2CN(C(=O)c3cncs3)CC23CN(C(=O)[C@H]2CC2(C)C)C3)o1 (some centres unmarked) [I-78]	> 10 µM
1 to 10 µM	CC(C)(c1cc[nH]n1)c1nc(C2CN(C(=O)c3cncs3)CC23CN(C(=O)[C@H]2CC2(C)C)C3)no1 (some centres unmarked) [I-79]	> 10 µM
> 10 µM	O=C(c1cncs1)N1CC(c2nnc(Cc3cccc(C4CCOCC4)n3)o2)C2(C1)CN(c1ncco1)C2 (centres unmarked) [I-80]	> 10 µM
1 to 10 µM	CC(c1nc(C2CN(C(=O)c3cncs3)CC23CN(C(=O)[C@H]2CC2(C)C)C3)no1)n1nc(Cl)cc1Cl (some centres unmarked) [I-81]	0.5 to 5 µM
0.1 to 1 µM	CC(c1nc(C2CN(C(=O)c3cncs3)CC23CN(C(=O)[C@H]2CC2(C)C)C3)no1)n1ccc(C2CCOCC2)n1 (some centres unmarked) [I-82]	> 10 µM
0.1 to 1 µM	CC1(C)C[C@@H]1C(=O)N1CC2(CN(C(=O)c3cncs3)CC2c2nnc(Cc3cccc(C4CCCCO4)n3)o2)C1 (some centres unmarked) [I-83]	> 10 µM
1 to 10 µM	CC1(C)C[C@@H]1C(=O)N1CC2(CN(C(=O)c3cnn(Cc4ccccc4)c3)CC2c2noc(COC3CCCC3)n2)C1 (some centres unmarked) [I-84]	> 10 µM
1 to 10 µM	Cc1cc(C)n(Cc2nc(C3CN(C(=O)c4cnn(Cc5ccccc5)c4)CC34CN(C(=O)[C@H]3CC3(C)C)C4)no2)n1 (some centres unmarked) [I-85]	> 10 µM
> 10 µM	COC(=O)c1coc(C2CN(C(=O)c3cnn(Cc4ccccc4)c3)CC23CN(C(=O)[C@H]2CC2(C)C)C3)n1 (stereo partly drawn) [I-86, methyl 2-(6-(1-benzyl-1H-pyrazole-4-carbonyl)-2-((S)-2,2-dimethylcyclopropane-1-carbonyl)-2,6-diazaspiro[3.4]octan-8-yl)oxazole-4-carboxylate]	> 10 µM
1 to 10 µM	CC1(C)C[C@@H]1C(=O)N1CC2(CN(C(=O)c3cnn(Cc4ccccc4)c3)CC2c2ccc(NC(=O)C3CCCCC3)cc2)C1 (stereo partly drawn) [I-87, N-(4-(6-(1-benzyl-1H-pyrazole-4-carbonyl)-2-((S)-2,2-dimethylcyclopropane-1-carbonyl)-2,6-diazaspiro[3.4]octan-8-yl)phenyl)cyclohexanecarboxamide]	5 to 10 µM

IC50 (CDK2/Cyclin E1)	Compound	IC50 (Kuramochi cells)
0.1 to 1 µM	C[C@H](NC(=O)c1coc(C2CN(C(=O)c3cnn(Cc4ccccc4)c3)CC23CN(C(=O)[C@H]2CC2(C)C)C3)n1)c1ccccc1 (some centres unmarked) [I-88]	> 10 µM
0.1 to 1 µM	C[C@H](NC(=O)c1coc(C2CN(C(=O)c3cnn(Cc4ccccc4)c3)CC23CN(C(=O)[C@H]2CC2(C)C)C3)n1)C1CCCCC1 (some centres unmarked) [I-89]	5 to 10 µM
0.01 to 0.1 µM	C[C@@H](NC(=O)c1coc(C2CN(C(=O)c3cnn(Cc4ccccc4)c3)CC23CN(C(=O)[C@H]2CC2(C)C)C3)n1)C1CCCCC1 (some centres unmarked) [I-90]	5 to 10 µM
0.1 to 1 µM	CC1(C)C[C@@H]1C(=O)N1CC2(CN(C(=O)c3cnn(Cc4ccccc4)c3)CC2c2nc(C(=O)NCc3ccccc3)co2)C1 (stereo partly drawn) [I-91, N-benzyl-2-(6-(1-benzyl-1H-pyrazole-4-carbonyl)-2-((S)-2,2-dimethylcyclopropane-1-carbonyl)-2,6-diazaspiro[3.4]octan-8-yl)oxazole-4-carboxamide]	> 10 µM
0.01 to 0.1 µM	CC1(C)C[C@@H]1C(=O)N1CC2(CN(C(=O)c3cnn(Cc4ccccc4)c3)CC2c2nc(C(=O)NCC3CCCCC3)co2)C1 (some centres unmarked) [I-92]	5 to 10 µM
1 to 10 µM	CC1(C)C[C@@H]1C(=O)N1CC2(CN(C(=O)c3cnn(Cc4ccccc4)c3)CC2c2ccc(NCc3ccccc3)cc2)C1 (stereo partly drawn) [I-93, (1-benzyl-1H-pyrazol-4-yl)(8-(4-(benzylamino)phenyl)-2-((S)-2,2-dimethylcyclopropane-1-carbonyl)-2,6-diazaspiro[3.4]octan-6-yl)methanone]	5 to 10 µM
0.01 to 0.1 µM	CC(c1nnc(C2CN(C(=O)c3cncs3)CC23CN(C(=O)[C@H]2CC2(C)C)C3)o1)n1ccc(C2CCCC2)n1 (some centres unmarked) [I-96]	> 10 µM
0.1 to 1 µM	CC1(C)C[C@@H]1C(=O)N1CC2(CN(C(=O)c3cncs3)CC2c2nnc(C3(c4cccc(C5CCOCC5)n4)COC3)o2)C1 (some centres unmarked) [I-97]	> 10 µM
> 10 µM	CC1(C)C[C@@H]1C(=O)N1CC2(C1)CN(c1cccc3ncsc13)CC2c1nnc(C(F)(F)c2ccc(Cl)c(Cl)c2)o1 (stereo partly drawn) [I-98, (6-(benzo[d]thiazol-7-yl)-8-(5-((3,4-dichlorophenyl)difluoromethyl)-1,3,4-oxadiazol-2-yl)-2,6-diazaspiro[3.4]octan-2-yl)((S)-2,2-dimethylcyclopropyl)methanone]	> 10 µM
> 10 µM	O=C(c1cncs1)N1CC(c2nnc(Cc3ccc(Cl)c(Cl)c3)o2)C2(C1)CN(c1nccc(C(F)(F)F)n1)C2 (centres unmarked) [I-99]	> 10 µM
0.1 to 1 µM	CC(c1coc(C2CCCC2)n1)c1nc(C2CN(C(=O)c3cncs3)CC23CN(C(=O)[C@H]2CC2(C)C)C3)no1 (some centres unmarked) [I-100]	5 to 10 µM
> 10 µM	CC1(C)C[C@@H]1C(=O)N1CC2(C1)CN(c1cccc3ncsc13)CC2c1nnc(Cc2ccc(Cl)c(Cl)c2)o1 (stereo partly drawn) [I-101, (6-(benzo[d]thiazol-7-yl)-8-(5-(3,4-dichlorobenzyl)-1,3,4-oxadiazol-2-yl)-2,6-diazaspiro[3.4]octan-2-yl)((S)-2,2-dimethylcyclopropyl)methanone]	> 10 µM
0.01 to 0.1 µM	CC(C)(c1cccc(C2CCOCC2)n1)c1nnc(C2CN(C(=O)c3cncs3)CC23CN(C(=O)[C@H]2CC2(C)C)C3)o1 (some centres unmarked) [I-102]	> 10 µM
> 10 µM	Cc1nc(C)c(C(=O)N2CC(c3nnc(C(F)(F)c4ccc(Cl)c(Cl)c4)o3)C3(C2)CN(C(=O)[C@H]2CC2(F)F)C3)s1 (stereo partly drawn) [I-103, (8-(5-((3,4-dichlorophenyl)difluoromethyl)-1,3,4-oxadiazol-2-yl)-2-((R)-2,2-difluorocyclopropane-1-carbonyl)-2,6-diazaspiro[3.4]octan-6-yl)(2,4-dimethylthiazol-5-yl)methanone]	> 10 µM
0.1 to 1 µM	Cc1nc(C)c(C(=O)N2CC(c3nnc(C(C)c4cccc(C5(C(F)(F)F)CC5)n4)o3)C3(C2)CN(C(=O)[C@H]2CC2(C)C)C3)s1 (some centres unmarked) [I-104]	> 10 µM
> 10 µM	CC1(C)C[C@@H]1C(=O)N1CC2(C1)CN(c1ncnc3ncsc13)CC2c1nnc(Cc2cccc(C3CCOCC3)n2)o1 (stereo partly drawn) [I-105, ((S)-2,2-dimethylcyclopropyl)(8-(5-((6-(tetrahydro-2H-pyran-4-yl)pyridin-2-yl)methyl)-1,3,4-oxadiazol-2-yl)-6-(thiazolo[4,5-d]pyrimidin-7-yl)-2,6-diazaspiro[3.4]octan-2-yl)methanone]	> 10 µM
1 to 10 µM	O=C(c1cncs1)N1CC(c2nc3ccc(Oc4ccccc4)cc3o2)C2(C1)CN(C(=O)[C@H]1CC1(F)F)C2 (stereo partly drawn) [I-144, (2-((R)-2,2-difluorocyclopropane-1-carbonyl)-8-(6-phenoxybenzo[d]oxazol-2-yl)-2,6-diazaspiro[3.4]octan-6-yl)(thiazol-5-yl)methanone]	> 10 µM
